Test [1] deals with T1, human Kv1.3 (CHO) (Homo sapiens, UniProt P22001).
T1 construct: expressed in transfected cells; host or cells: CHO
As to the kind of experiment: cell-based.

In test [2] the target is T2, human Kv1.1 (HEK293) (Homo sapiens, UniProt Q09470).
T2 construct: expressed in transfected cells; host or cells: HEK293
As to the kind of experiment: cell-based.

Bridge positions count the residues as written; N and C are the ends. Square brackets hold non-standard residues; d marks the D form. Peptide text beside a SMILES is read from it. 1Nal = N[C@@H](Cc1cccc2ccccc12)C(=O)O Where only a bound is given, the exact number is not on record here.

T2 sequence (Q09470 whole entry): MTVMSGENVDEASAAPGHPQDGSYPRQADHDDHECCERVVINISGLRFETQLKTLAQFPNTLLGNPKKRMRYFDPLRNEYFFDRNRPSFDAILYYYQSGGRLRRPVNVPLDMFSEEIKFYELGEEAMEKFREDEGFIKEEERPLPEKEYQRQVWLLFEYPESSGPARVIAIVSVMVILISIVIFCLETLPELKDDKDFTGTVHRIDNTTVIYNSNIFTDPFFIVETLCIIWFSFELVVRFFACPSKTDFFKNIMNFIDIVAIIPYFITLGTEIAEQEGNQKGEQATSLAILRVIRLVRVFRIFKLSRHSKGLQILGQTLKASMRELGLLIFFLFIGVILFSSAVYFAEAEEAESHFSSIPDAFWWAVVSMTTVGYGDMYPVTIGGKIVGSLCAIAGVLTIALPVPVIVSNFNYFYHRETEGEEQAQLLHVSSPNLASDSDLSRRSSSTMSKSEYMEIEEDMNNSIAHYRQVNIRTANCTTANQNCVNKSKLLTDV
T1 sequence (P22001 whole entry): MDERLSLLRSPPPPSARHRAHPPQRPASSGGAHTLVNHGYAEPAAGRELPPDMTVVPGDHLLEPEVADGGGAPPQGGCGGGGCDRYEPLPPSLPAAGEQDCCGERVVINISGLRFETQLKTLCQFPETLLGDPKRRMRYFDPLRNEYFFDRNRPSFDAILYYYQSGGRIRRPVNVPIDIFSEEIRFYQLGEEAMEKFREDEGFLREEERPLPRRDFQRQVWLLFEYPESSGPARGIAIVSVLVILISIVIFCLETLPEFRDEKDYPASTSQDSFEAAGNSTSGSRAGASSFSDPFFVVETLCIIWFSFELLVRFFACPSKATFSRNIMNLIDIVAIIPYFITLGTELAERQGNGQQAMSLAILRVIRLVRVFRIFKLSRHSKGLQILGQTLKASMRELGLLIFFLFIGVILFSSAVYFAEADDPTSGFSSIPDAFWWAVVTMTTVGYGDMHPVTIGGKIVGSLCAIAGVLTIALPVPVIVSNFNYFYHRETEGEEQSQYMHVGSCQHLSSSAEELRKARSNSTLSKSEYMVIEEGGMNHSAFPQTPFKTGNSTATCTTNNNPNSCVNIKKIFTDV

What is called IC50 is the concentration that gives 50% inhibition. Higher therefore signals a need for much substance. With `CC[C@H](C)[C@@H]1NC(=O)[C@H](CCCCN)NC(=O)[C@@H](NC(=O)[C@H](CCCCN)NC(=O)[C@@H](NC(=O)[C@H](CC(N)=O)NC(=O)[C@H](CCCNC(=N)N)NC(=O)[C@@H](NC(=O)[C@@H](NC(=O)CN)C(C)C)[C@@H](C)CC)C(C)C)CSSC[C@@H]2NC(=O)[C@H](CCCCN)NC(=O)CNC(=O)[C@H](Cc3ccccc3)NC(=O)[C@H](CCCNC(=N)N)NC(=O)[C@H](CCSC)NC(=O)CNC(=O)[C@H](C)NC(=O)[C@H](CCCCN)NC(=O)[C@H](CCCCN)NC(=O)[C@@H]3CSSC[C@@H](C(=O)N[C@H](C(=O)N4CCC[C@H]4C(=O)N[C@@H](CCCCN)C(=O)O)[C@@H](C)O)NC(=O)[C@H](Cc4c[nH]cn4)NC(=O)[C@H](CSSC[C@H](NC(=O)[C@H](CCC(N)=O)NC(=O)[C@H](CCCNC(=N)N)NC(=O)[C@H](CO)NC1=O)C(=O)N[C@@H](CC(C)C)C(=O)N[C@@H](CCC(=O)O)C(=O)N1CCC[C@H]1C(=O)N3)NC(=O)[C@H](CCCCN)NC(=O)CNC(=O)[C@H](CC(N)=O)NC(=O)[C@H](CCSC)NC2=O` [I4R] (H-GVIRNVKCKISRQCLEPCKKAGMRFGKCMNGKCHCTPK-OH; disulfide 8-28, 14-33, 18-35), the 50% inhibitory concentration (IC50) in test [1] is 10.4 pM; in test [2], 1.92 pM.

On to `CC[C@H](C)[C@H](NC(=O)[C@@H](NC(=O)CN)C(C)C)C(=O)N[C@H](C(=O)N[C@@H](CC(N)=O)C(=O)N[C@H](C(=O)N[C@@H](CCCCN)C(=O)N[C@H]1CSSC[C@@H]2NC(=O)[C@H](CCCCN)NC(=O)CNC(=O)[C@H](Cc3ccccc3)NC(=O)[C@H](CCCNC(=N)N)NC(=O)[C@H](CCSC)NC(=O)CNC(=O)[C@H](C)NC(=O)[C@H](CCCCN)NC(=O)[C@H](CCCCN)NC(=O)[C@@H]3CSSC[C@@H](C(=O)N[C@H](C(=O)N4CCC[C@H]4C(=O)N[C@@H](CCCCN)C(=O)O)[C@@H](C)O)NC(=O)[C@H](Cc4c[nH]cn4)NC(=O)[C@H](CSSC[C@H](NC(=O)[C@H](CCC(N)=O)NC(=O)[C@H](CCCNC(=N)N)NC(=O)[C@H](CO)NC(=O)[C@H](C)NC(=O)[C@H](CCCCN)NC1=O)C(=O)N[C@@H](CC(C)C)C(=O)N[C@@H](CCC(=O)O)C(=O)N1CCC[C@H]1C(=O)N3)NC(=O)[C@H](CCCCN)NC(=O)CNC(=O)[C@H](CC(N)=O)NC(=O)[C@H](CCSC)NC2=O)C(C)C)[C@@H](C)CC` [I10A] (H-GVIINVKCKASRQCLEPCKKAGMRFGKCMNGKCHCTPK-OH; disulfide 8-28, 14-33, 18-35), for which the IC50 in test [1] amounted to 91.2 pM; in test [2] it was 4.46 pM.

With `CC[C@H](C)[C@H](NC(=O)[C@@H](NC(=O)CN)C(C)C)C(=O)N[C@H](C(=O)N[C@@H](CC(N)=O)C(=O)N[C@H](C(=O)N[C@@H](CCCCN)C(=O)N[C@H]1CSSC[C@@H]2NC(=O)[C@H](CCCCN)NC(=O)CNC(=O)[C@H](Cc3ccccc3)NC(=O)[C@H](CCCNC(=N)N)NC(=O)[C@H](CCSC)NC(=O)CNC(=O)[C@H](C)NC(=O)[C@H](CCCCN)NC(=O)[C@H](CCCCN)NC(=O)[C@@H]3CSSC[C@@H](C(=O)N[C@H](C(=O)N4CCC[C@H]4C(=O)N[C@@H](CCCCN)C(=O)O)[C@@H](C)O)NC(=O)[C@H](Cc4c[nH]cn4)NC(=O)[C@H](CSSC[C@H](NC(=O)[C@H](CCC(N)=O)NC(=O)[C@H](CCCNC(=N)N)NC(=O)[C@H](CO)NC(=O)[C@H](CCC(=O)O)NC(=O)[C@H](CCCCN)NC1=O)C(=O)N[C@@H](CC(C)C)C(=O)N[C@@H](CCC(=O)O)C(=O)N1CCC[C@H]1C(=O)N3)NC(=O)[C@H](CCCCN)NC(=O)CNC(=O)[C@H](CC(N)=O)NC(=O)[C@H](CCSC)NC2=O)C(C)C)[C@@H](C)CC` [I10E] (H-GVIINVKCKESRQCLEPCKKAGMRFGKCMNGKCHCTPK-OH; disulfide 8-28, 14-33, 18-35), the half-inhibitory concentration (IC50) in test [1] was 120 pM; in test [2], 33.5 pM.

Regarding `CC[C@H](C)[C@H](NC(=O)[C@@H](NC(=O)CN)C(C)C)C(=O)N[C@H](C(=O)N[C@@H](CC(N)=O)C(=O)N[C@H](C(=O)N[C@@H](CCCCN)C(=O)N[C@H]1CSSC[C@@H]2NC(=O)[C@H](CCCCN)NC(=O)CNC(=O)[C@H](Cc3ccccc3)NC(=O)[C@H](CCCNC(=N)N)NC(=O)[C@H](CCSC)NC(=O)CNC(=O)[C@H](C)NC(=O)[C@H](CCCCN)NC(=O)[C@H](CCCCN)NC(=O)[C@@H]3CSSC[C@@H](C(=O)N[C@H](C(=O)N4CCC[C@H]4C(=O)N[C@@H](CCCCN)C(=O)O)[C@@H](C)O)NC(=O)[C@H](Cc4c[nH]cn4)NC(=O)[C@H](CSSC[C@H](NC(=O)[C@H](CCC(N)=O)NC(=O)[C@H](CCCNC(=N)N)NC(=O)[C@H](CO)NC(=O)[C@H](CCCNC(=N)N)NC(=O)[C@H](CCCCN)NC1=O)C(=O)N[C@@H](CC(C)C)C(=O)N[C@@H](CCC(=O)O)C(=O)N1CCC[C@H]1C(=O)N3)NC(=O)[C@H](CCCCN)NC(=O)CNC(=O)[C@H](CC(N)=O)NC(=O)[C@H](CCSC)NC2=O)C(C)C)[C@@H](C)CC` [I10R] (H-GVIINVKCKRSRQCLEPCKKAGMRFGKCMNGKCHCTPK-OH; disulfide 8-28, 14-33, 18-35), the IC50 was 11.7 pM in test [1] and 1.73 pM in test [2].

Consider `CC[C@H](C)[C@@H]1NC(=O)[C@H](CCCCN)NC(=O)[C@@H](NC(=O)[C@H](C)NC(=O)[C@@H](NC(=O)[C@H](CC(N)=O)NC(=O)[C@@H](NC(=O)[C@@H](NC(=O)[C@@H](NC(=O)CN)C(C)C)[C@@H](C)CC)[C@@H](C)CC)C(C)C)CSSC[C@@H]2NC(=O)[C@H](CCCCN)NC(=O)CNC(=O)[C@H](Cc3ccccc3)NC(=O)[C@H](CCCNC(=N)N)NC(=O)[C@H](CCSC)NC(=O)CNC(=O)[C@H](C)NC(=O)[C@H](CCCCN)NC(=O)[C@H](CCCCN)NC(=O)[C@@H]3CSSC[C@@H](C(=O)N[C@H](C(=O)N4CCC[C@H]4C(=O)N[C@@H](CCCCN)C(=O)O)[C@@H](C)O)NC(=O)[C@H](Cc4c[nH]cn4)NC(=O)[C@H](CSSC[C@H](NC(=O)[C@H](CCC(N)=O)NC(=O)[C@H](CCCNC(=N)N)NC(=O)[C@H](CO)NC1=O)C(=O)N[C@@H](CC(C)C)C(=O)N[C@@H](CCC(=O)O)C(=O)N1CCC[C@H]1C(=O)N3)NC(=O)[C@H](CCCCN)NC(=O)CNC(=O)[C@H](CC(N)=O)NC(=O)[C@H](CCSC)NC2=O` [K7A] (H-GVIINVACKISRQCLEPCKKAGMRFGKCMNGKCHCTPK-OH; disulfide 8-28, 14-33, 18-35), for which the values for the IC50 in test [1] and in test [2] were 181 pM and 21.9 pM, respectively.

`CC[C@H](C)[C@@H]1NC(=O)[C@H](CCCCN)NC(=O)[C@@H](NC(=O)[C@H](CCC(=O)O)NC(=O)[C@@H](NC(=O)[C@H](CC(N)=O)NC(=O)[C@@H](NC(=O)[C@@H](NC(=O)[C@@H](NC(=O)CN)C(C)C)[C@@H](C)CC)[C@@H](C)CC)C(C)C)CSSC[C@@H]2NC(=O)[C@H](CCCCN)NC(=O)CNC(=O)[C@H](Cc3ccccc3)NC(=O)[C@H](CCCNC(=N)N)NC(=O)[C@H](CCSC)NC(=O)CNC(=O)[C@H](C)NC(=O)[C@H](CCCCN)NC(=O)[C@H](CCCCN)NC(=O)[C@@H]3CSSC[C@@H](C(=O)N[C@H](C(=O)N4CCC[C@H]4C(=O)N[C@@H](CCCCN)C(=O)O)[C@@H](C)O)NC(=O)[C@H](Cc4c[nH]cn4)NC(=O)[C@H](CSSC[C@H](NC(=O)[C@H](CCC(N)=O)NC(=O)[C@H](CCCNC(=N)N)NC(=O)[C@H](CO)NC1=O)C(=O)N[C@@H](CC(C)C)C(=O)N[C@@H](CCC(=O)O)C(=O)N1CCC[C@H]1C(=O)N3)NC(=O)[C@H](CCCCN)NC(=O)CNC(=O)[C@H](CC(N)=O)NC(=O)[C@H](CCSC)NC2=O` [K7E] (H-GVIINVECKISRQCLEPCKKAGMRFGKCMNGKCHCTPK-OH; disulfide 8-28, 14-33, 18-35): the IC50 was 14.2 pM in test [1] and less than 1.52 pM in test [2].

`CC[C@H](C)[C@@H]1NC(=O)[C@H](CCCCN)NC(=O)[C@@H](NC(=O)[C@H](Cc2cccc3ccccc23)NC(=O)[C@@H](NC(=O)[C@H](CC(N)=O)NC(=O)[C@@H](NC(=O)[C@@H](NC(=O)[C@@H](NC(=O)CN)C(C)C)[C@@H](C)CC)[C@@H](C)CC)C(C)C)CSSC[C@@H]2NC(=O)[C@H](CCCCN)NC(=O)CNC(=O)[C@H](Cc3ccccc3)NC(=O)[C@H](CCCNC(=N)N)NC(=O)[C@H](CCSC)NC(=O)CNC(=O)[C@H](C)NC(=O)[C@H](CCCCN)NC(=O)[C@H](CCCCN)NC(=O)[C@@H]3CSSC[C@@H](C(=O)N[C@H](C(=O)N4CCC[C@H]4C(=O)N[C@@H](CCCCN)C(=O)O)[C@@H](C)O)NC(=O)[C@H](Cc4c[nH]cn4)NC(=O)[C@H](CSSC[C@H](NC(=O)[C@H](CCC(N)=O)NC(=O)[C@H](CCCNC(=N)N)NC(=O)[C@H](CO)NC1=O)C(=O)N[C@@H](CC(C)C)C(=O)N[C@@H](CCC(=O)O)C(=O)N1CCC[C@H]1C(=O)N3)NC(=O)[C@H](CCCCN)NC(=O)CNC(=O)[C@H](CC(N)=O)NC(=O)[C@H](CCSC)NC2=O` [K7Nal] (H-GVIINV[1Nal]CKISRQCLEPCKKAGMRFGKCMNGKCHCTPK-OH; disulfide 8-28, 14-33, 18-35): the figures for the half-inhibitory concentration (IC50) in test [1] and in test [2] were 23.6 pM and less than 1.52 pM, respectively.

Take `CC[C@H](C)[C@@H]1NC(=O)[C@H](CCCCN)NC(=O)[C@@H](NC(=O)[C@H](CCCNC(=N)N)NC(=O)[C@@H](NC(=O)[C@H](CC(N)=O)NC(=O)[C@@H](NC(=O)[C@@H](NC(=O)[C@@H](NC(=O)CN)C(C)C)[C@@H](C)CC)[C@@H](C)CC)C(C)C)CSSC[C@@H]2NC(=O)[C@H](CCCCN)NC(=O)CNC(=O)[C@H](Cc3ccccc3)NC(=O)[C@H](CCCNC(=N)N)NC(=O)[C@H](CCSC)NC(=O)CNC(=O)[C@H](C)NC(=O)[C@H](CCCCN)NC(=O)[C@H](CCCCN)NC(=O)[C@@H]3CSSC[C@@H](C(=O)N[C@H](C(=O)N4CCC[C@H]4C(=O)N[C@@H](CCCCN)C(=O)O)[C@@H](C)O)NC(=O)[C@H](Cc4c[nH]cn4)NC(=O)[C@H](CSSC[C@H](NC(=O)[C@H](CCC(N)=O)NC(=O)[C@H](CCCNC(=N)N)NC(=O)[C@H](CO)NC1=O)C(=O)N[C@@H](CC(C)C)C(=O)N[C@@H](CCC(=O)O)C(=O)N1CCC[C@H]1C(=O)N3)NC(=O)[C@H](CCCCN)NC(=O)CNC(=O)[C@H](CC(N)=O)NC(=O)[C@H](CCSC)NC2=O` [K7R] (H-GVIINVRCKISRQCLEPCKKAGMRFGKCMNGKCHCTPK-OH; disulfide 8-28, 14-33, 18-35): the IC50 in test [1] was 13.2 pM; in test [2] it was less than 1.52 pM.
